This note sets out measurements from publication PMC5218480 (PLoS ONE, 2017).

In this assay the test system is MV-4-11 cells. Nature of the assay: Gene expression microarray analysis (Affymetrix PrimeView) and GSEA. It counts as cell-based, human. Set-up: RFU PODN (11730768_x_at) / Fold change /veh PODN (11730768_x_at) / RFU LINC00158 (11744669_a_at) / Fold change /veh LINC00158 (11744669_a_at) / RFU DUSP10 (11751237_a_at) / Fold change /veh DUSP10 (11751237_a_at) / RFU ID3 (11757404_x_at) / Fold change /veh ID3 (11757404_x_at) / RFU PLEKHG5 (11737974_s_at) / Fold change /veh PLEKHG5 (11737974_s_at) / RFU LRRC4B (11730491_at) / Fold change /veh LRRC4B (11730491_at) / RFU GIMAP4 (11747438_a_at) / Fold change /veh GIMAP4 (11747438_a_at) / RFU KRT8 (11758183_x_at) / Fold change /veh KRT8 (11758183_x_at) / RFU CNN1 (11734310_a_at) / Fold change /veh CNN1 (11734310_a_at) / RFU VPS37D (11726825_at) / Fold change /veh VPS37D (11726825_at) / RFU C10orf10 (11716522_x_at) / Fold change /veh C10orf10 (11716522_x_at) / RFU KIR2DL2 /// KIR2DL4 /// KIR2DL5A /// KIR2DL5B /// KIR2DS1 /// KIR2DS2 /// KIR2DS3 /// KIR2DS4 /// KIR3DL3 /// KIR3DL3 /// KIR3DS1 (11738374_at) / Fold change /veh KIR2DL2 /// KIR2DL4 /// KIR2DL5A /// KIR2DL5B /// KIR2DS1 /// KIR2DS2 /// KIR2DS3 /// KIR2DS4 /// KIR3DL3 /// KIR3DL3 /// KIR3DS1 (11738374_at) / RFU C1QL1 (11718748_at) / Fold change /veh C1QL1 (11718748_at) / RFU TMPRSS4 (11747572_a_at) / Fold change /veh TMPRSS4 (11747572_a_at) / RFU HAMP (11756126_x_at) / Fold change /veh HAMP (11756126_x_at) / RFU RNFT2 (11725882_a_at) / Fold change /veh RNFT2 (11725882_a_at) / RFU NR4A2 (11747474_a_at) / Fold change /veh NR4A2 (11747474_a_at) / RFU ABCC12 (11746883_a_at) / Fold change /veh ABCC12 (11746883_a_at) / RFU TMEM136 (11760407_x_at) / Fold change /veh TMEM136 (11760407_x_at) / RFU CLDN22 /// WWC2 (11732394_at) / Fold change /veh CLDN22 /// WWC2 (11732394_at) / RFU HLA-DPB1 (11760878_x_at) / Fold change /veh HLA-DPB1 (11760878_x_at) / RFU SPINT1 (11716480_a_at) / Fold change /veh SPINT1 (11716480_a_at) / RFU GAP43 (11754022_s_at) / Fold change /veh GAP43 (11754022_s_at) / RFU A4GNT (11735810_at) / Fold change /veh A4GNT (11735810_at) / RFU PRB3 (11715151_x_at) / Fold change /veh PRB3 (11715151_x_at) / RFU TUBB4B (11761932_at) / Fold change /veh TUBB4B (11761932_at) / RFU CAPN14 (11732068_a_at) / Fold change /veh CAPN14 (11732068_a_at) / RFU TMCC2 (11721928_a_at) / Fold change /veh TMCC2 (11721928_a_at) / RFU IRGQ (11745062_a_at) / Fold change /veh IRGQ (11745062_a_at) / RFU FAM174B (11720279_a_at) / Fold change /veh FAM174B (11720279_a_at) / RFU TMPRSS4 (11748680_a_at) / Fold change /veh TMPRSS4 (11748680_a_at) / RFU FAM212B (11763350_a_at) / Fold change /veh FAM212B (11763350_a_at) / RFU PLEKHG5 (11743358_a_at) / Fold change /veh PLEKHG5 (11743358_a_at) / RFU ZSCAN30 (11745921_a_at) / Fold change /veh ZSCAN30 (11745921_a_at) / RFU CMKLR1 (11741424_a_at) / Fold change /veh CMKLR1 (11741424_a_at) / RFU LOC101060620 /// MAPK8IP1 (11723275_at) / Fold change /veh LOC101060620 /// MAPK8IP1 (11723275_at) / RFU SPTSSB (11747773_x_at) / Fold change /veh SPTSSB (11747773_x_at) / RFU PRSS12 (11739890_at) / Fold change /veh PRSS12 (11739890_at) / RFU BIN1 (11741810_x_at) / Fold change /veh BIN1 (11741810_x_at) / RFU WNT11 (11732464_a_at) / Fold change /veh WNT11 (11732464_a_at) / RFU C10orf10 (11716521_a_at) / Fold change /veh C10orf10 (11716521_a_at) / RFU C5orf56 (11738089_at) / Fold change /veh C5orf56 (11738089_at) / RFU CYB561 (11721691_x_at) / Fold change /veh CYB561 (11721691_x_at) / RFU ANKRD19P (11752326_a_at) / Fold change /veh ANKRD19P (11752326_a_at) / RFU OR2T12 /// OR2T33 /// OR2T8 (11738714_s_at) / Fold change /veh OR2T12 /// OR2T33 /// OR2T8 (11738714_s_at) / RFU VCAN (11748164_a_at) / Fold change /veh VCAN (11748164_a_at) / RFU JSRP1 (11732532_at) / Fold change /veh JSRP1 (11732532_at) / RFU KRTAP10-11 (11738290_x_at) / Fold change /veh KRTAP10-11 (11738290_x_at) / RFU MYO3A (11730013_a_at) / Fold change /veh MYO3A (11730013_a_at) / RFU EBF3 (11725865_a_at) / Fold change /veh EBF3 (11725865_a_at) / RFU CAMK2N1 (11719241_x_at) / Fold change /veh CAMK2N1 (11719241_x_at) / RFU C5orf56 (11738088_a_at) / Fold change /veh C5orf56 (11738088_a_at) / RFU OLFML3 (11715873_a_at) / Fold change /veh OLFML3 (11715873_a_at) / RFU LOC100653217 /// NTM (11731650_a_at) / Fold change /veh LOC100653217 /// NTM (11731650_a_at) / RFU MAPK11 (11762145_a_at) / Fold change /veh MAPK11 (11762145_a_at) / RFU FIZ1 (11724087_x_at) / Fold change /veh FIZ1 (11724087_x_at) / RFU OASL (11726364_x_at) / Fold change /veh OASL (11726364_x_at) / RFU SOX15 (11748057_x_at) / Fold change /veh SOX15 (11748057_x_at) / RFU CD79A (11719716_a_at) / Fold change /veh CD79A (11719716_a_at) / RFU HIST1H1D (11736915_at) / Fold change /veh HIST1H1D (11736915_at) / RFU CASKIN2 (11723855_a_at) / Fold change /veh CASKIN2 (11723855_a_at) / RFU LOC730098 (11760151_x_at) / Fold change /veh LOC730098 (11760151_x_at) / RFU OR4N2 (11742367_at) / Fold change /veh OR4N2 (11742367_at) / RFU PRRT2 (11749266_a_at) / Fold change /veh PRRT2 (11749266_a_at) / RFU SNX32 (11753110_a_at) / Fold change /veh SNX32 (11753110_a_at) / RFU CDHR5 (11726645_a_at) / Fold change /veh CDHR5 (11726645_a_at) / RFU RCAN1 (11760418_a_at) / Fold change /veh RCAN1 (11760418_a_at) / RFU FAM167A (11723789_a_at) / Fold change /veh FAM167A (11723789_a_at) / RFU FAM26E (11764081_at) / Fold change /veh FAM26E (11764081_at) / RFU ISYNA1 (11749810_s_at) / Fold change /veh ISYNA1 (11749810_s_at) / RFU ACY1 (11761880_at) / Fold change /veh ACY1 (11761880_at) / RFU 11764098_at / Fold change /veh 11764098_at / RFU SAMD14 (11745864_x_at) / Fold change /veh SAMD14 (11745864_x_at) / RFU NPB (11741838_a_at) / Fold change /veh NPB (11741838_a_at) / RFU TMPRSS6 (11731388_a_at) / Fold change /veh TMPRSS6 (11731388_a_at) / RFU KRTAP10-2 (11738614_at) / Fold change /veh KRTAP10-2 (11738614_at) / RFU ARHGAP8 /// PRR5-ARHGAP8 (11727945_x_at) / Fold change /veh ARHGAP8 /// PRR5-ARHGAP8 (11727945_x_at) / RFU KRTAP5-7 /// NADSYN1 (11734609_at) / Fold change /veh KRTAP5-7 /// NADSYN1 (11734609_at) / RFU RASL12 (11751679_a_at) / Fold change /veh RASL12 (11751679_a_at) / RFU CDKN2B (11736163_a_at) / Fold change /veh CDKN2B (11736163_a_at) / RFU PRF1 (11729649_at) / Fold change /veh PRF1 (11729649_at) / RFU, ZNF638 /// ZNF638-IT1 / Fold change vs veh, ZNF638 /// ZNF638-IT1 / RFU, PANK3 / Fold change vs veh, PANK3 / RFU, SH3YL1 / Fold change vs veh, SH3YL1 / RFU, ZEB2 / Fold change vs veh, ZEB2 / RFU, NRIP1 / Fold change vs veh, NRIP1 / RFU, PTTG1IP / Fold change vs veh, PTTG1IP / RFU, CAPN2 / Fold change vs veh, CAPN2 / RFU, MED14 / Fold change vs veh, MED14 / RFU, SNORA58 / Fold change vs veh, SNORA58 / RFU, C1orf63 / Fold change vs veh, C1orf63 / RFU, LRRFIP1 / Fold change vs veh, LRRFIP1 / RFU, NDUFAF7 / Fold change vs veh, NDUFAF7 / RFU, SLC12A2 / Fold change vs veh, SLC12A2 / RFU, IBTK / Fold change vs veh, IBTK / RFU, ESF1 / Fold change vs veh, ESF1 / Fold change vs veh, TMEM50B / RFU, TAOK1 / Fold change vs veh, TAOK1 / RFU, ACBD3 / Fold change vs veh, ACBD3 / RFU, TMA16 / Fold change vs veh, TMA16 / RFU, RWDD3 / Fold change vs veh, RWDD3 / RFU, BCAT1 / Fold change vs veh, BCAT1 / RFU, EDEM3 / Fold change vs veh, EDEM3 / RFU, TMEM33 / Fold change vs veh, TMEM33 / RFU, WDR75 / Fold change vs veh, WDR75 / RFU, AHCTF1 / Fold change vs veh, AHCTF1 / RFU, TFRC / Fold change vs veh, TFRC / RFU, ZDHHC17 / Fold change vs veh, ZDHHC17 / RFU, NOM1 / Fold change vs veh, NOM1 / RFU, ARL8B / Fold change vs veh, ARL8B / RFU, ZBTB11 / Fold change vs veh, ZBTB11 / RFU, TAMM41 / Fold change vs veh, TAMM41 / RFU, KIAA1704 /// LOC100996395 / Fold change vs veh, KIAA1704 /// LOC100996395 / RFU, ING1 / Fold change vs veh, ING1 / RFU, TRMT61B / Fold change vs veh, TRMT61B / RFU, FUBP3 / Fold change vs veh, FUBP3 / RFU, TP53 / Fold change vs veh, TP53 / RFU, TNKS2 / Fold change vs veh, TNKS2 / RFU, ZFP14 / Fold change vs veh, ZFP14 / RFU, ACTR2 / Fold change vs veh, ACTR2 / RFU, PPP3R1 / Fold change vs veh, PPP3R1 / RFU, PIK3R1 / Fold change vs veh, PIK3R1 / RFU, HNRNPA1 / Fold change vs veh, HNRNPA1 / RFU, RNF170 / Fold change vs veh, RNF170 / RFU, ZNF28 / Fold change vs veh, ZNF28 / RFU, RNGTT / Fold change vs veh, RNGTT / RFU, OGT / Fold change vs veh, OGT / RFU, BRD1 / Fold change vs veh, BRD1 / RFU, MARS / Fold change vs veh, MARS / RFU, ZNF655 / Fold change vs veh, ZNF655 / RFU, FAHD1 / Fold change vs veh, FAHD1 / RFU, BDP1 / Fold change vs veh, BDP1 / RFU, LRRCC1 / Fold change vs veh, LRRCC1 / RFU, ARID1A / Fold change vs veh, ARID1A / RFU, ZNF146 / Fold change vs veh, ZNF146 / RFU, ZNF330 / Fold change vs veh, ZNF330 / RFU, GPN3 / Fold change vs veh, GPN3 / RFU, C9orf123 / Fold change vs veh, C9orf123 / RFU, N4BP2L2 / Fold change vs veh, N4BP2L2 / RFU, ARFIP1 / Fold change vs veh, ARFIP1 / RFU, FAM179B / Fold change vs veh, FAM179B / RFU, BCL10 / Fold change vs veh, BCL10 / RFU, UHRF1BP1L / Fold change vs veh, UHRF1BP1L / RFU, BET1 / Fold change vs veh, BET1 / RFU, CNOT2 / Fold change vs veh, CNOT2 / RFU, ZNF268 / Fold change vs veh, ZNF268 / Fold change vs veh, ZNF507 / RFU, DGCR2 / Fold change vs veh, DGCR2 / RFU, WDSUB1 / Fold change vs veh, WDSUB1 / Fold change vs veh, HSP90B1 /// MIR3652 / RFU, ADSS / Fold change vs veh, ADSS / RFU, GK / Fold change vs veh, GK / RFU, ZNF148 / Fold change vs veh, ZNF148 / RFU, TAF9 / Fold change vs veh, TAF9 / RFU, SLC1A5 / Fold change vs veh, SLC1A5 / RFU, SLMO2 / Fold change vs veh, SLMO2 / RFU, ABCC4 / Fold change vs veh, ABCC4 / RFU, LOC101060439 /// RAP1B / Fold change vs veh, LOC101060439 /// RAP1B / RFU, RFX7 / Fold change vs veh, RFX7 / RFU, GTPBP10 / Fold change vs veh, GTPBP10 / RFU, CNEP1R1 / Fold change vs veh, CNEP1R1 / RFU, BIVM-ERCC5 /// ERCC5 / Fold change vs veh, BIVM-ERCC5 /// ERCC5 / RFU, ILF3 / Fold change vs veh, ILF3 / RFU 11762660_at / Fold change /veh 11762660_at / RFU VCAN (11757783_s_at) / Fold change /veh VCAN (11757783_s_at) / RFU DDX43 (11728927_at) / Fold change /veh DDX43 (11728927_at) / RFU KRT8 (11758188_x_at) / Fold change /veh KRT8 (11758188_x_at) / RFU NKD1 (11759106_at) / Fold change /veh NKD1 (11759106_at) / RFU SRD5A1 (11742802_a_at) / Fold change /veh SRD5A1 (11742802_a_at) / RFU TPSAB1 /// TPSB2 (11721975_s_at) / Fold change /veh TPSAB1 /// TPSB2 (11721975_s_at) / RFU GSTM3 (11746129_a_at) / Fold change /veh GSTM3 (11746129_a_at) / RFU IL23R (11737362_x_at) / Fold change /veh IL23R (11737362_x_at) / RFU TMEM51 (11727254_a_at) / Fold change /veh TMEM51 (11727254_a_at) / RFU PIWIL2 (11732686_x_at) / Fold change /veh PIWIL2 (11732686_x_at) / RFU ORM1 (11744905_x_at) / Fold change /veh ORM1 (11744905_x_at) / RFU CCDC152 (11743942_at) / Fold change /veh CCDC152 (11743942_at) / RFU ECM1 (11717891_a_at) / Fold change /veh ECM1 (11717891_a_at) / RFU IL23R (11748794_a_at) / Fold change /veh IL23R (11748794_a_at) / RFU TNFAIP8L3 (11732012_x_at) / Fold change /veh TNFAIP8L3 (11732012_x_at) / RFU MBOAT4 (11741988_at) / Fold change /veh MBOAT4 (11741988_at) / RFU 11764193_at / Fold change /veh 11764193_at / RFU TMEM53 (11763286_at) / Fold change /veh TMEM53 (11763286_at) / RFU MAGEB2 (11727129_at) / Fold change /veh MAGEB2 (11727129_at) / RFU TMEM200A (11744735_a_at) / Fold change /veh TMEM200A (11744735_a_at) / RFU CCDC152 (11751479_a_at) / Fold change /veh CCDC152 (11751479_a_at) / RFU FAM211A (11726209_a_at) / Fold change /veh FAM211A (11726209_a_at) / RFU RGS16 (11746705_a_at) / Fold change /veh RGS16 (11746705_a_at) / RFU VCAN (11755009_s_at) / Fold change /veh VCAN (11755009_s_at) / RFU RHOB (11743442_s_at) / Fold change /veh RHOB (11743442_s_at) / RFU RGS16 (11720943_a_at) / Fold change /veh RGS16 (11720943_a_at) / RFU RGS16 (11720944_at) / Fold change /veh RGS16 (11720944_at) / RFU, VPS4B / Fold change vs veh, VPS4B / RFU, CREB1 / Fold change vs veh, CREB1 / RFU, DNAJC13 / Fold change vs veh, DNAJC13 / RFU, GNAQ / Fold change vs veh, GNAQ / RFU, CDK5R1 / Fold change vs veh, CDK5R1 / RFU, ZRANB3 / Fold change vs veh, ZRANB3 / RFU, CUL4A / Fold change vs veh, CUL4A / RFU, CCNY / Fold change vs veh, CCNY / RFU, UFL1 / Fold change vs veh, UFL1 / RFU, COG3 / Fold change vs veh, COG3 / RFU, DIAPH2 / Fold change vs veh, DIAPH2 / RFU, SKA2 / Fold change vs veh, SKA2 / RFU, AFF3 / Fold change vs veh, AFF3 / RFU, LMF1 / Fold change vs veh, LMF1 / RFU, IPO11 / Fold change vs veh, IPO11 / RFU, DFFB / Fold change vs veh, DFFB / RFU, FOXP1 / Fold change vs veh, FOXP1 / RFU, CARD8 / Fold change vs veh, CARD8 / RFU, STRN3 / Fold change vs veh, STRN3 / RFU, ADK / Fold change vs veh, ADK / RFU, RASSF2 / Fold change vs veh, RASSF2 / RFU, WIPF1 / Fold change vs veh, WIPF1 / RFU, LARP1B / Fold change vs veh, LARP1B / RFU, RASA1 / Fold change vs veh, RASA1 / RFU, RB1 / Fold change vs veh, RB1 / RFU, PPFIA1 / Fold change vs veh, PPFIA1 / RFU, MAT2A / Fold change vs veh, MAT2A / RFU, CCT5 / Fold change vs veh, CCT5 / RFU, WDR92 / Fold change vs veh, WDR92 / RFU, CUX1 / Fold change vs veh, CUX1 / RFU, TTC7A / Fold change vs veh, TTC7A / RFU, TMEM135 / Fold change vs veh, TMEM135 / RFU, DEPTOR / Fold change vs veh, DEPTOR / RFU, CPM / Fold change vs veh, CPM / RFU, DNAJB6 / Fold change vs veh, DNAJB6 / RFU, CACNA2D3 / Fold change vs veh, CACNA2D3 / RFU, DTX4 / Fold change vs veh, DTX4 / RFU, TFCP2 / Fold change vs veh, TFCP2 / RFU, GMCL1 /// GMCL1P1 / Fold change vs veh, GMCL1 /// GMCL1P1 / RFU, AEBP2 / Fold change vs veh, AEBP2 / RFU, SNHG1 /// SNORD22 /// SNORD25 /// SNORD26 /// SNORD27 /// SNORD28 /// SNORD29 /// SNORD31 / Fold change vs veh, SNHG1 /// SNORD22 /// SNORD25 /// SNORD26 /// SNORD27 /// SNORD28 /// SNORD29 /// SNORD31 / Fold change (Aza/veh), C12orf56 (ProbeSet 11735607_a_at) / Fold change (ACY-1035/veh), C12orf56 (ProbeSet 11735607_a_at) / Fold change (Aza/veh), FGFR1OP (ProbeSet 11751329_s_at) / Fold change (ACY-1035/veh), FGFR1OP (ProbeSet 11751329_s_at) / Fold change (Aza/veh), VPS36 (ProbeSet 11739960_a_at) / Fold change (ACY-1035/veh), VPS36 (ProbeSet 11739960_a_at) / RFU SYPL1 (11715823_x_at) / Fold change /veh SYPL1 (11715823_x_at) / RFU IGFBP7 (11715501_s_at) / Fold change /veh IGFBP7 (11715501_s_at) / RFU REEP3 (11722064_at) / Fold change /veh REEP3 (11722064_at) / RFU IGLL1 (11728026_x_at) / Fold change /veh IGLL1 (11728026_x_at): dose or concentration left out as unconfirmed. The note with it: ProbeSet 11716865_a_at; LIST B.

For the compound `Nc1ccc(-c2cccs2)cc1NC(=O)c1ccc2c(c1)cc(C1CC1)n2CCN1CCOCC1` [ACY-1035], the “RFU, SLC1A5” value turned out to be 252.35 RFU.
